# Experimental data as given in US12581252B2, “Substituted pyrrolo[3,4-b]pyridines as PI3K-α inhibitors” (Relay Therapeutics, Inc., priority 2020, dated 2026).
# Biological target: H1047R PIK3CA enzyme (Homo sapiens, UniProt P42336, H1047R)
# Assay: ADP-Glo Biochemical PIK3CA Kinase Assay
# H1047R PIK3CA enzyme, sequence (P42336 whole entry H1047R): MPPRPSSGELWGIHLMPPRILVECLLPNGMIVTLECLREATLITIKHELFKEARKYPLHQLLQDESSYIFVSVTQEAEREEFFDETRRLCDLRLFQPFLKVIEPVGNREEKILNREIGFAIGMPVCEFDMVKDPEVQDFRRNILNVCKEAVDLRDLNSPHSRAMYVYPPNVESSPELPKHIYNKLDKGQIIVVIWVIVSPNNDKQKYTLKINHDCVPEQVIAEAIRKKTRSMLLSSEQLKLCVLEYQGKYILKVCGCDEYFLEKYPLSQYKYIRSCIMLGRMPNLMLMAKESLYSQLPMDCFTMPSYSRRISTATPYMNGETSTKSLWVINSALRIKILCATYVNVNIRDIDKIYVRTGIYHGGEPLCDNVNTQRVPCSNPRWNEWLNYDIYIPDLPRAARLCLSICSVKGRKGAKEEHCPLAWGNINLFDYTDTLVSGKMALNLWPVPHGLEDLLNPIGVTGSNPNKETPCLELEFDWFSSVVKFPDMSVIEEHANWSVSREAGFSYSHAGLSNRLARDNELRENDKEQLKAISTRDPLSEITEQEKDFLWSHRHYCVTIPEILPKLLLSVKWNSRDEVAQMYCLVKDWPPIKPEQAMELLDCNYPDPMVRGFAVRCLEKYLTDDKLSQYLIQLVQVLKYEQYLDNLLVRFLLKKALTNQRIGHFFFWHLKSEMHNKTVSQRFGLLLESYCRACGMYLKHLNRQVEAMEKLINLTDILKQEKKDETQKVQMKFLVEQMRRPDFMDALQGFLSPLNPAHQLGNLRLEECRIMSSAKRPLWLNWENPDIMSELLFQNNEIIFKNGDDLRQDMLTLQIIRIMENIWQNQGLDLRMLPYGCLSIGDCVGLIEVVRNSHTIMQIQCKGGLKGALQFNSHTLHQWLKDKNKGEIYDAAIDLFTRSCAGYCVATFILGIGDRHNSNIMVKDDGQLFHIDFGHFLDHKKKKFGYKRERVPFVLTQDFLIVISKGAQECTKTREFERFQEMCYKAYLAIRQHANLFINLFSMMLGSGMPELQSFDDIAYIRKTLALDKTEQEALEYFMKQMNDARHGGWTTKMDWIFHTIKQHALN
# H1047R PIK3CA enzyme, sequence (P27986 whole entry partner): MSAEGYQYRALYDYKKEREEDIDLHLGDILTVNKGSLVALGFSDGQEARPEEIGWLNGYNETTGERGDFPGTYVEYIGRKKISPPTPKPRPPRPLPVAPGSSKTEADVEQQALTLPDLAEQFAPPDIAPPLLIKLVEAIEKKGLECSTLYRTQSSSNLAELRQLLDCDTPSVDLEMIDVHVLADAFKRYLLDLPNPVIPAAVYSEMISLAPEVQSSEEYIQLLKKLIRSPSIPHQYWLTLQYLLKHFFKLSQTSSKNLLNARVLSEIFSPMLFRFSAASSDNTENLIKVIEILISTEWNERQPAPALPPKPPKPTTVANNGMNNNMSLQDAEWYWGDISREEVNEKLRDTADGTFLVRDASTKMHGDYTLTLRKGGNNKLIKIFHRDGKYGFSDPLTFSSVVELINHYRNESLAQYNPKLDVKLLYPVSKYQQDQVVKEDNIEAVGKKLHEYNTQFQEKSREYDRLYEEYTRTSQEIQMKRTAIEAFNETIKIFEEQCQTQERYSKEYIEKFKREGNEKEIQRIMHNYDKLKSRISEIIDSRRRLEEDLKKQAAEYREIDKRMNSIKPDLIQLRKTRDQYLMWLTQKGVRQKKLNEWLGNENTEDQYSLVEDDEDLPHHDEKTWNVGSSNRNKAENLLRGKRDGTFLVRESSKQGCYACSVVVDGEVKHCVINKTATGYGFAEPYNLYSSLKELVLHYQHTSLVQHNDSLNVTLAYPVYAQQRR
row,SMILES,IC50
1,O=C(Nc1cc(OC2CNC2)cc2c1C(c1cc(F)ccc1Cl)NC2=O)c1cc(F)cc(C(F)(F)F)c1 (stereo not shown) [Compound I-1252],100 to 500 nM
2,O=C(Nc1cc(O)cc2c1C(c1cc(F)ccc1Cl)NC2=O)c1cc(F)cc(C(F)(F)F)c1 (stereo not shown) [Compound I-363],≤ 100 nM
3,O=C(Nc1cc(-c2cn3ncccc3n2)cc2c1C(c1cc(F)ccc1Cl)NC2=O)c1cc(F)cc(C(F)(F)F)c1 (stereo not shown) [Compound I-1306],≤ 100 nM
4,Cn1cc(-c2cc(NC(=O)c3cc(F)cc(Cl)c3)c3c(n2)C(=O)N[C@H]3c2cc(F)ccc2Cl)cn1 [Compound I-386],≤ 100 nM
5,Cc1ccccc1C1NC(=O)c2cccc(NC(=O)c3ccn4ccccc34)c21 (stereo not shown) [Compound I-61],100 to 500 nM
6,O=C1NC(c2cc(F)ccc2Cl)c2c(NC(=O)N3CCC(C(F)(F)F)C3)cc(Br)cc21 (stereo not shown) [Compound I-543],1000 to 10000 nM
7,Cn1cc(-c2cc(NC(=O)c3cc(F)cc(C(F)(F)F)c3)c3c(n2)C(=O)N[C@H]3c2cc(F)ccc2Cl)cn1 [Compound I-187],≤ 100 nM
8,N#CCc1cc(NC(=O)c2cc(F)cc(C(F)(F)F)c2)c2c(c1)C(=O)N[C@@H]2c1cc(F)ccc1Cl [Compound I-1087],100 to 500 nM
9,N#CCc1cc(NC(=O)c2cc(F)cc(C(F)(F)F)c2)c2c(c1)C(=O)NC2c1cc(F)ccc1Cl (stereo not shown) [Compound I-533],≤ 100 nM
10,O=C(Nc1cc(Br)cc2c1C(c1cc(F)ccc1Cl)NC2=O)c1cncc(C(F)(F)F)c1 (stereo not shown) [Compound I-957],1000 to 10000 nM
11,O=C(Nc1cc(O[C@H]2CC[C@H]2O)cc2c1C(c1cc(F)ccc1Cl)NC2=O)c1cc(F)cc(C(F)(F)F)c1 (mixture of isomers) [Compound I-1210],≤ 100 nM
12,O=C(Nc1cc(Br)cc2c1C(c1cc(F)ccc1Cl)NC2=O)c1cc(C(F)(F)F)cs1 (stereo not shown) [Compound I-1428],1000 to 10000 nM
13,CN(Cc1cccc(O)c1)C(=O)Nc1cc(Br)cc2c1C(c1cc(F)ccc1Cl)NC2=O (stereo not shown) [Compound I-1382],10000 to 100000 nM
14,O=C(Nc1ccnc2c1C(c1ccccc1Cl)NC2=O)c1cc(F)cc(C(F)(F)F)c1 (stereo not shown) [Compound I-208],500 to 1000 nM
15,O=C(Nc1cccc2c1C(c1cccc(F)c1)NC2=O)c1cc(F)cc(C(F)(F)F)c1 (stereo not shown) [Compound I-390],1000 to 10000 nM
16,O=C(Nc1cc(-c2ccc3ncnn3c2)cc2c1[C@H](c1cc(F)ccc1Cl)NC2=O)c1ccc(F)c(OC(F)(F)F)c1 (stereo in doubt) [Compound I-1107],100 to 500 nM

row,SMILES,IC50
1,CC(=O)N1CC(c2cc(NC(=O)c3cc(F)cc(C(F)(F)F)c3)c3c(c2)C(=O)NC3c2cc(F)ccc2Cl)C1 (stereo not shown) [Compound I-655],≤ 100 nM
2,Cc1ccccc1C1NC(=O)c2c(Br)ccc(NC(=O)c3nsc4ccccc34)c21 (stereo not shown) [Compound I-203],≤ 100 nM
3,O=C(Nc1cc(C2COC2)cc2c1[C@@H](c1cc(F)ccc1Cl)NC2=O)c1cc(F)cc(C(F)(F)F)c1 [Compound I-589],≤ 100 nM
4,O=C(Nc1cc(N2CCC(F)(F)CC2)nc2c1C(c1cc(F)ccc1Cl)NC2=O)c1cc(F)cc(C(F)(F)F)c1 (stereo not shown) [Compound I-539],≤ 100 nM
5,O=C(Nc1cc(Br)cc2c1C(c1cc(F)ccc1Cl)NC2=O)c1ccc(OC(F)(F)F)c(F)c1 (stereo not shown) [Compound I-1313],1000 to 10000 nM
6,O=C1NC(c2ccccc2Cl)c2c(NC(=O)c3nsc4ccccc34)ccnc21 (stereo not shown) [Compound I-172],100 to 500 nM
7,O=C(Nc1cc(Br)cc2c1C(c1cc(F)ccc1Cl)NC2=O)c1cc(F)cc(OC(F)F)c1 (stereo not shown) [Compound I-833],100 to 500 nM
8,O=C1NC(c2cc(F)ccc2Cl)c2c(NC(=O)C3CCOc4ccccc43)cc(Br)cc21 (stereo not shown) [Compound I-605],10000 to 100000 nM
9,O=C1NC(c2ccncc2Cl)c2c(NC(=O)c3csc4ccccc34)cccc21 (stereo not shown) [Compound I-101],1000 to 10000 nM
10,COCc1cc(F)cc(C(=O)Nc2cc(Br)cc3c2C(c2cc(F)ccc2Cl)NC3=O)c1 (stereo not shown) [Compound I-1316],1000 to 10000 nM
11,CS(=O)(Cc1cc(NC(=O)c2cc(F)cc(C(F)(F)F)c2)c2c(c1)C(=O)NC2c1cc(F)ccc1Cl)=Nc1ccccc1 (stereo not shown) [Compound I-1435],≤ 100 nM
12,"C[C@](O)(CC#N)c1cc(NC(=O)c2cc(F)cc(C(F)(F)F)c2)c2c(c1)C(=O)N[C@@H]2c1cc(F)ccc1Cl (single isomer, unassigned) [Compound I-1396]",1000 to 10000 nM
13,O=C(Nc1cc(Br)cc2c1C(c1cc(F)ccc1Cl)NC2=O)Oc1ccc2c(n1)NCC2 (stereo not shown) [Compound I-1206],10000 to 100000 nM
14,O=C1Cc2cccc(NC(=O)c3cc(F)cc(C(F)(F)F)c3)c2C(c2ccccc2Cl)N1 (stereo not shown) [Compound I-1178],1000 to 10000 nM
15,CS(=O)(=O)Cn1cc(-c2cc(NC(=O)c3cc(F)cc(C(F)(F)F)c3)c3c(c2)C(=O)NC3c2cc(F)ccc2Cl)cn1 (stereo not shown) [Compound I-1336],≤ 100 nM

# More lines, now with the values ahead:
row,IC50,SMILES
1,1000 to 10000 nM,Cc1cc2ncnn2cc1-c1cc(NC(=O)c2cc(F)cc(C(F)(F)F)c2)c2c(c1)C(=O)N[C@@H]2c1cc(F)ccc1Cl [Compound I-1873]
2,10000 to 100000 nM,"Cc1cn(-c2cc(NC(=O)N3C[C@](O)(C(F)(F)F)c4cc(F)ccc43)c3c(c2)C(=O)N[C@H]3c2cc(F)ccc2Cl)cn1 (single isomer, unassigned) [Compound I-2639]"
3,10000 to 100000 nM,"O=C1CCC[C@@H]([C@H]2NC(=O)c3cccc(NC(=O)c4cc(F)cc(C(F)(F)F)c4)c32)C1 (single isomer, unassigned) [Compound I-2253]"
4,≤ 100 nM,O=C(Nc1cc(-c2ccn3nncc3c2)cc2c1C(c1cc(F)ccc1Cl)NC2=O)c1cc(F)cc(C(F)(F)F)c1 (stereo not shown) [Compound I-1670]
5,10000 to 100000 nM,"C[C@H](c1nn[nH]c1C(=O)Nc1cccc2c1[C@@H](c1cc(F)ccc1Cl)NC2=O)C(F)(F)F (single isomer, unassigned) [Compound I-2268]"
6,10000 to 100000 nM,O=C1NC(c2cc(F)ccc2Cl)c2c(NC(=O)N3CCn4c(nnc4C(F)(F)F)C3)cccc21 (stereo not shown) [Compound I-2111]
7,1000 to 10000 nM,"N#Cc1cnn(-c2cc(NC(=O)N3C[C@H](O)c4cc(F)ccc43)c3c(c2)C(=O)N[C@@H]3c2cc(F)ccc2Cl)c1 (single isomer, unassigned) [Compound I-2406]"
8,10000 to 100000 nM,COc1cc(-c2ccc3ncnn3c2)cc2c1C(c1cc(F)ccc1Cl)NC2=O (stereo not shown) [Compound I-1973]
9,1000 to 10000 nM,"Nc1cc(NC(=O)N2C[C@@H](O)c3ccccc32)c2c(c1)C(=O)N[C@@H]2c1cc(F)ccc1Cl (single isomer, unassigned) [Compound I-2131]"
10,10000 to 100000 nM,"O=C1N[C@@H](c2cc(F)ccc2Cl)c2c(NC(=O)N3C[C@](O)(C(F)(F)F)c4cc(F)ccc43)cc(N3CCOC3=O)cc21 (single isomer, unassigned) [Compound I-2676]"
11,≤ 100 nM,O=C(NCCC(O)CO)c1cc(NC(=O)c2cc(F)cc(C(F)(F)F)c2)c2c(c1)C(=O)NC2c1cc(F)ccc1Cl (stereo not shown) [Compound I-1493]
12,1000 to 10000 nM,"N#Cc1cc(NC(=O)N2C[C@@](O)(C(F)(F)F)c3ccccc32)c2c(c1)C(=O)N[C@H]2c1cc(F)ccc1Cl (single isomer, unassigned) [Compound I-2563]"
13,10000 to 100000 nM,NC1CCC(C(=O)Nc2cc(-c3ccc4ncnn4c3)cc3c2C(c2cc(F)ccc2Cl)NC3=O)CC1 (stereo not shown) [Compound I-1759]
14,500 to 1000 nM,"O=C1N[C@H](c2cc(F)ccc2Cl)c2c(NC(=O)N3C[C@H](O)c4c(F)cccc43)cccc21 (single isomer, unassigned) [Compound I-2143]"
15,10000 to 100000 nM,"C[C@@]1(O)CN(C(=O)Nc2cccc3c2[C@H](c2cc(F)ccc2Cl)NC3=O)c2ccccc21 (single isomer, unassigned) [Compound I-2206]"
